The values that follow are results of earlier work, collected in US7300923B2, “Partial and full agonists of A1 adenosine receptors” (CV Therapeutics, Inc., priority 2004, dated 2007).

In one data set the target is T1, A1-adenosine receptor (Homo sapiens, UniProt P30542).
T1 sequence (P30542 1-326): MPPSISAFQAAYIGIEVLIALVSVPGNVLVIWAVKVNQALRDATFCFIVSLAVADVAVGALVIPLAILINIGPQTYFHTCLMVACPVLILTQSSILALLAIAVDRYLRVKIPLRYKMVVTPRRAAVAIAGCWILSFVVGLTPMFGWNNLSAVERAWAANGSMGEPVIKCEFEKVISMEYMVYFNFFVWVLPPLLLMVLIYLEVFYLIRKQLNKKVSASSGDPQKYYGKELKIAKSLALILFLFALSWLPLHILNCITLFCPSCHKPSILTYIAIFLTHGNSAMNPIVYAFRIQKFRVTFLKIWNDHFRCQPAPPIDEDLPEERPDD

The subject of a further data set is seizures induced by DMCM. Particulars: seizures induced by the inverse benzodiazepine agonist DMCM.

On to `OC1CCCC1Nc1ncnc2c1ncn2[C@@H]1O[C@H](CSc2ccccc2F)[C@@H](O)[C@H]1O` (mixture of isomers) [(4S,5S,2R,3R)-5-[(2-fluorophenylthio)methyl]-2-{6-[(2-hydroxy-cyclopentyl)amino]-purin-9-yl}oxolane-3,4-diol], for which the “A1-adenosine receptor agonist profile” value at A1-adenosine receptor is “highly selective partial A1-adenosine receptor agonist”. As to `Nc1ncnc2c1ncn2[C@@H]1O[C@H](CO)[C@@H](O)[C@H]1O` [adenosine, Adenosine], the half-life result is “less than 10 sec”. Turning to `Cc1ccccc1CNc1ncnc2c1ncn2[C@@H]1O[C@H](CO)[C@@H](O)[C@H]1O` [metrifudil], the anticonvulsant activity entry with seizures induced by DMCM is “potent anticonvulsant”.
